Measurements from patent publication US7141661B2, “Non-steroidal anti-inflammatory drug activated gene with anti-tumorigenic properties” (The United States of America as represented by the …, priority 2000, dated 2006).

How the values were obtained:
Type in all cases: cell-based, human
[1] = tested on: NAG-1; experiment: Northern blot analysis of NAG-1 mRNA expression in HCT-116 cells; details: for NAG-1 Induction (mRNA) Fold: HCT-116, 24 hr in absence of serum, relative NAG-1 mRNA over vehicle control (1.0), tested over the concentration range listed; for NAG-1 expression induction: HCT-116, at any concentration tested
Procedure: Upon reaching 60–80% confluence in 10 cm plates, the cells were treated at indicated concentrations and times with either different NSAIDs or PPARγ ligands in the absence of serum. Total RNAs were isolated using TRIzol reagent (Life Technologies) according to the manufacturer's protocol. For Northern blot analysis, […] of total RNA was denatured at 55° C. for 15 min and separated in a 1.2% agarose gel containing 2.2 M formaldehyde, and transferred to Hybond-N membrane ([…]). After fixing the membrane by UV, blots were prehybridized in hybridization solution (Rapid-hyb buffer, […]) for 1 hr at 65° C. followed by hybridization with cDNA labeled with [α-^32P]dCTP by random primer extension (DECAprimeII kit, Ambion). The probes used were either full-length NAG-1 fragment or PTGFB clone (generously provided by Dr. Bento-Soar of the University of Iowa). After 4 hr incubation at 65° C., the blots were washed once with 2×SSC/0.1% SDS at RT and twice with 0.1×SSC/0.1% SDS at 65° C. Messenger RNA abundance Was estimated by intensities of the hybridization bands of autoradiographs using Scion Image (Scion). Equivalent loading of RNA samples was confirmed by hybridizing the same blot with a ^32P-labeled b-actin probe which recognizes RNA of approximately 2 kb.
To determine whether other NSAIDs increased apoptosis and NAG-1 expression, tests were conducted to determine whether variants of NSAIDs induced NAG-1 gene expression and NSAID-induced apoptosis. Aspirin, ibuprofen, indomethacin, and sulindac sulfide were selected since they are known COX inhibitors. […] HCT-116 cells were treated with different NSAIDs (vehicle, 0.2% DMSO; aspirin, 10 mM; ibuprofen, 1 mM; sodium salicylate, 5 mM; sulindac sulfide, 50 μM; sulindac, 40 μM; acetaminophen, 100 μM) for 24 hr in the absence of serum. Northern analysis was performed using NAG-1 and β-actin as probes. Total RNAs were isolated from NSAID-treated HCT-116 cells after 24 hr treatment and Northern blot was performed using NAG-1 cDNA as a probe (data not shown). […] Each of the doses were as follows: aspirin (1, 5, 10 mM); ibuprofen (100, 500, 1000 μM); salicylate (1, 2.5, 5 mM); sulindac sulfide (1, 10, 50 μM); sulindac (10, 20, 40 μM); acetaminophen (10, 50, 100 μM). After 48 hr treatment with NSAIDs in the presence of serum, cells were harvested and assayed as described in FIG. 1C. Apoptosis detected by PI staining was measured by FACS, as known in the art (FIG. 2A; HCT-116 cells were treated with different NSAIDs (vehicle, 0.2% DMSO; Aspirin, 10 mM; Ibuprofen, 1 mM; Sodium Salicylate, 5 mM; Sulindac Sulfide, 50 μM; Sulindac, 40 μM; Acetaminophen, 100 μM) for 24 hr in the absence of serum. Northern analysis was performed using NAG-1 and β-actin as probes. The open bars represent the relative expression of NAG-1 mRNA over the control (vehicle). The hatched bars represent the relative apoptosis ratio over vehicle treatment by PI staining methods. N=3±S.D.).
(§1) In the Table below, HCT-116 cells were treated with different NSAIDs (vehicle, 0.2% DMSO) for 24 hr in the absence of serum. Northern analysis was performed using NAG-1 and β-actin as probes. The data represent relative expression of NAG-1 mRNA over the control (1.0). Each NSAID was tested at 3 different concentrations and maximally effective concentration used for apoptosis determination. Apoptosis ratio by PI staining was measured by FACS. After 48 hr treatment with NSAIDs in the presence of serum, cells were harvested and assayed. The data represent relative apoptosis ratio over vehicle treatment by PI staining methods. TACS™ Annexin V-FITC kit was also used to confirm apoptosis.

[2] = tested on: NAG-1 promoter; experiment: NAG-1 promoter (pNAG2021) luciferase reporter assay in transiently transfected HCT-116 cells; details: pNAG2021 in HCT-116, 24 hr; TGZ 10 μM, sulindac 40 μM, acetaminophen 100 μM, other NSAIDs; versus vehicle
[3] = tested on: HCT-116 cells; experiment: Apoptosis and cell cycle by PI staining / FACS in HCT-116 cells; details: for Apoptosis (PI Staining), relative apoptosis ratio over vehicle: HCT-116, 48 hr in presence of serum, maximally effective concentration, FACS
Procedure: To determine whether NAG-1 gene expression is associated with NSAID-induced apoptosis or altered cell cycle kinetics, flow cytometric analysis of the distribution of cells at various stages of the cell cycle was performed. Apoptosis and cell cycle kinetics of INDO-treated HCT-116 cells were measured at different time points. HCT-116 cells were treated with INDO, stained with PI, and analyzed by flow cytometry. Seven thousand five hundred cells were examined by flow cytometry by gating on an area versus width dot plot to exclude cell debris and cell aggregates. Apoptosis is represented by the fold increase in sub-G1 population over 0 hr treatment.
The DNA content for NSAIDs, PPARγ ligand, and vehicle treated HCT-116 cells was determined by FACS. Cells were plated at a density of 4×10^5 cells/well in 2 ml of medium in 6 well plates, incubated for 16 h, and then treated with NSAIDs or TGZ in the presence of serum. After treatment, the cells were harvested, washed with PBS, fixed by the slow addition of cold 70% ethanol to a total of 1 ml, and stored overnight at 4° C. The fixed cells were pelleted, washed once with PBS, and stained in 1 ml of 20 μg/ml of propidium iodide (PI), 1 mg/ml RNase in PBS for 20 min. Seven thousand five hundred cells were examined by flow cytometry using Becton Dickinson FACSort equipped with CellQuest software, by gating on an area versus width dot plot to exclude cell debris and cell aggregates. Each cell cycle distribution was analyzed by the McCycle program using one cell cycle parameter. Apoptosis was measured based on the level of sub-diploid DNA contained in cells following treatment with NSAIDs or TGZ using CellQuest software.
as §1, with “Northern” for “In the Table below, HCT-116 cells were treated with different NSAIDs (vehicle, 0.2% DMSO) for 24 hr in the absence of serum. Northern”, “After 48 hr treatment with NSAIDs in the presence of serum, cells were harvested and assayed.” left out

[4] = tested on: NAG-1; experiment: Northern blot NAG-1 induction in PC-3 prostate cells; details: PC-3 cells, 10 mM, 24 hr
Procedure: (§2) NSAID-induced apoptosis is not restricted to colorectal cells, as NSAIDs can induce apoptosis in breast, lung, leukemia, and prostate cell lines. To test for the induction of NAG-1 by NSAIDs in different cell lines, A549 lung epithelial cells, MCF-7 mammary cells, PC-3 prostate cancer cells, and U937 leukemia cell lines were treated with several concentrations of INDO and aspirin. Then, as described above, Northern blot analysis was performed. […] Quiescent cells were grown for 24 hr in the presence of indicated NSAIDs. Total RNAs were isolated and subjected to Northern analysis using NAG-1 and β-actin as probes. The blots contained 10 μg of total RNA from INDO- or Aspirin (Asp)-treated cells with indicated doses. “V” indicates total RNAs from vehicle (0.2% DMSO) treated cells. The results shown are representative of those obtained in two experiments.

[5] = tested on: NAG-1; experiment: Northern blot NAG-1 induction in A549 lung carcinoma cells; details: 10 mM, 24 hr
Procedure: as §2

[6] = tested on: NAG-1; experiment: Northern blot NAG-1 induction in MCF-7 breast carcinoma cells; details: MCF-7 cells, 10 mM, 24 hr
Procedure: as §2

[7] = tested on: NAG-1; experiment: Northern blot NAG-1 induction in U937 leukemia cells; details: 24 hr
Procedure: as §2

[8] = tested on: NAG-1; experiment: Western blot analysis of secreted NAG-1 protein from HCT-116 cells; details: HCT-116, 5 μM TGZ
Procedure: The level of secreted NAG-1 was evaluated using Western blot analysis with anti-human-NAG-1 antibody (generously provided by Dr. Paralkar of Pfizer). HCT-116 cells were grown to 60–80% confluency in 10 cm plates followed by 48 hr treatment in the absence of serum with either NSAIDs or TGZ. The media were harvested and concentrated approximately 15-fold using Centriprep 10 concentrators (Amicon). Proteins (30 μg) were separated by 15% SDS-PAGE and transferred for 1 hr onto nitrocellulose membrane (Schleicher & Schuell). The blots were blocked for 1 hr with 5% skim milk in TBS/Tween 0.05%, and probed with anti-NAG-1 antibody (1 μg/ml in TBS-0.2%-Tween20) at […] overnight. After washing, the blots were treated with horseradish peroxidase-conjugated secondary antibody for 1 hr and washed several times. The signal was detected by enhanced chemiluminescence system (AMERSHAM) and autoradiography.
HCT-116 cells were treated with 100 μM INDO in the absence of serum for various times. In FIG. 1B, left panel. 10 μg of total RNA was loaded in each lane. Northern blotting was performed using the NAG-1 probe and re-probed with β-actin probe. The hybridization signals were quantitated using Scion Image software (Scion). Levels of the 1.3 kb NAG-1 transcript were normalized to the levels of β-actin transcripts and represented relative to 0 hr treatment. […] The signal was detected by ECL reagent (AMERSHAM).

## CCCCC/C=C/C=C1/C(=O)C=C[C@@H]1C/C=C\CCCC(=O)O [15d-PGJ2, 15-deoxy-Δ^12,14-prostaglandin J2]
[1]; HCT-116, 1 μM
  Induction of NAG-1 gene expression: 3 fold

## CC(=O)Nc1ccc(O)cc1 [Acetaminophen]
[2]
  Induction of luciferase reporter activity (2021 bp NAG-1 promoter): did not increase luciferase activity
[3]
  Apoptosis (PI Staining), relative apoptosis ratio over vehicle: 0.9 ± 0.153
[1]
  NAG-1 Induction (mRNA) Fold: 0.9 Fold
  NAG-1 expression induction: did not induce NAG-1 expression

## CC(=O)Oc1ccccc1C(=O)O [Aspirin]
[4]
  NAG-1 induction: high NAG-1 induction
[5]
  NAG-1 induction: high NAG-1 induction
[3]
  Apoptosis (PI Staining), relative apoptosis ratio over vehicle: 3.5 ± 0.451
[1]
  NAG-1 Induction (mRNA) Fold: 3.5 Fold
[6]
  NAG-1 induction: high NAG-1 induction
[7]; 5 mM
  NAG-1 expression: significantly increased
[7]; 10 mM
  NAG-1 induction: high NAG-1 induction

## Cc1ccc(-c2cc(C(F)(F)F)nn2-c2ccc(S(N)(=O)=O)cc2)cc1 [Celecoxib]
[3]
  Apoptosis (PI Staining), relative apoptosis ratio over vehicle: 0.722 ± 0.098
[1]
  NAG-1 Induction (mRNA) Fold: 1.0 Fold

## CC1(C)OC(=O)C(c2cccc(F)c2)=C1c1ccc(S(C)(=O)=O)cc1 [DFU]
[3]
  Apoptosis (PI Staining), relative apoptosis ratio over vehicle: 0.54 ± 0.091
[1]
  NAG-1 Induction (mRNA) Fold: 1.0 Fold

## O=C(O)Cc1ccccc1Nc1c(Cl)cccc1Cl [Diclofenac]
[3]
  Apoptosis (PI Staining), relative apoptosis ratio over vehicle: 4.0 ± 0.315
[1]
  NAG-1 Induction (mRNA) Fold: 3.7 Fold

## CC(C)Cc1ccc(C(C)C(=O)O)cc1 (stereo not shown) [Ibuprofen]
[3]
  Apoptosis (PI Staining), relative apoptosis ratio over vehicle: 4.3 ± 0.666
[1]
  NAG-1 Induction (mRNA) Fold: 4.5 Fold

## CS(=O)(=O)Nc1ccc([N+](=O)[O-])cc1OC1CCCCC1 [NS-398]
[3]
  Apoptosis (PI Staining), relative apoptosis ratio over vehicle: 1.029 ± 0.109
[1]
  NAG-1 Induction (mRNA) Fold: 0.9 Fold

## CN1C(C(=O)Nc2ccccn2)=C(O)c2ccccc2S1(=O)=O [Piroxicam]
[3]
  Apoptosis (PI Staining), relative apoptosis ratio over vehicle: 1.9 ± 0.145
[1]
  NAG-1 Induction (mRNA) Fold: 2.5 Fold

## O=C([O-])c1ccccc1O.[Na+] [Sodium Salicylate]
[3]
  Apoptosis (PI Staining), relative apoptosis ratio over vehicle: 1.8 ± 0.252
[1]
  NAG-1 Induction (mRNA) Fold: 3.0 Fold

## CSc1ccc(/C=C2/C(C)=C(CC(=O)O)c3cc(F)ccc32)cc1 [Sulindac Sulfide]
[3]
  Apoptosis (PI Staining), relative apoptosis ratio over vehicle: 4.3 ± 0.737
[1]
  NAG-1 Induction (mRNA) Fold: 4.6 Fold

## CC1=C(CC(=O)O)c2cc(F)ccc2/C1=C\c1ccc(S(C)(=O)=O)cc1 [Sulindac Sulfone]
[3]
  Apoptosis (PI Staining), relative apoptosis ratio over vehicle: 1.6 ± 0.043
[1]
  NAG-1 Induction (mRNA) Fold: 1.3 Fold

## CC1=C(CC(=O)O)c2cc(F)ccc2/C1=C\c1ccc([S+](C)[O-])cc1 (stereo not shown) [Sulmdac, Sulindac]
[2]
  Induction of luciferase reporter activity (2021 bp NAG-1 promoter): did not increase luciferase activity
[3]
  Apoptosis (PI Staining), relative apoptosis ratio over vehicle: 1.1 ± 0.173
[1]
  NAG-1 Induction (mRNA) Fold: 1.5 Fold
  NAG-1 expression induction: did not induce NAG-1 expression

## Cc1c(C)c2c(c(C)c1O)CCC(C)(COc1ccc(CC3SC(=O)NC3=O)cc1)O2 (stereo not shown) [TGZ, Troglitazone]
[2]
  Induction of luciferase reporter activity (2021 bp NAG-1 promoter): 3 fold
[8]
  Time at which increase in NAG-1 protein was observed: 6 h
[3]; HCT-116, presence of serum, TGZ 5 μM
  Earliest time at which apoptosis was observed: 12 h
[3]; HCT-116, TGZ 5 μM
  Time point at which G1 arrest was seen: 12 h
[1]; HCT-116, 5 μM
  Induction of NAG-1 gene expression: 3 fold
[1]; HCT-116, 5 μM TGZ
  Earliest time at which increase in NAG-1 mRNA was observed: 3 h
